According to ChEMBL document CHEMBL4837235, “Cyclic Imine Pinnatoxin G is Cytotoxic to Cancer Cell Lines via Nicotinic Acetylcholine Receptor-Driven Classical Apoptosis” (2021):
Activity calls are given as the source filed them. No cut-off for these calls is given here.

What was measured:
U-373MG ATCC = assay: Cytotoxicity against human U373 cells assessed as reduction in cell viability at 5 uM after 24 to 72 hrs by MTT assay; format: functional, cell-based; settings: time 24-72 hrs
N2a = assay: Cytotoxicity against mouse Neuro2a cells assessed as cell viability at 0.46 uM measured after 72 hrs by MTT assay; format: functional, cell-based
LN-18 [1] = assay: Cytotoxicity against human LN-18 cells assessed as reduction in cell viability at 5 uM after 24 to 72 hrs by MTT assay; format: functional, cell-based; settings: time 24-72 hrs
MDA-MB-231 [2] = assay: Induction of mitochondrial membrane permeability in human MDA-MB-231 cells assessed as mitochondrial membrane permeability at 5 uM measured after 72 hrs by TMRE staining based analysis (reference value: 7%); format: functional
PC-3 [3] = assay: Induction of apoptosis in human PC-3 cells assessed as caspase activation using Ac-DEVD-AMC as substrate at 5 uM measured after 72 hrs by fluorometric assay relative to control; format: functional
PC-3 [4] = assay: Cell cycle arrest in human PC-3 cells assessed as accumulation of cells at subG1 phase at 5 uM after 72 hrs by propidium iodide staining based flow cytometric analysis (reference value: 3.7+/- 0.2%); format: functional
PC-3 [5] = assay: Cell cycle arrest in human PC-3 cells assessed as accumulation of cells at G0/G1 phase at 5 uM after 72 hrs by propidium iodide staining based flow cytometric analysis (reference value: 59.7+/- 0.2%); format: functional
LN-18 [6] = assay: Cytotoxicity against human LN-18 cells assessed as reduction in cell viability at 5 uM after 72 hrs by MTT assay; format: functional
MDA-MB-231 [7] = assay: Cytotoxicity against human MDA-MB-231 cells assessed as reduction in cell viability at 5 uM after 72 hrs by MTT assay; format: functional
MDA-MB-231 [8] = assay: Cell cycle arrest in human MDA-MB-231 cells assessed as accumulation of cells at G0/G1 phase at 5 uM after 72 hrs by propidium iodide staining based flow cytometric analysis (reference value: 57.7+/- 0.6%); format: functional
U-87 MG [9] = assay: Cytotoxicity against human U87 cells assessed as reduction in cell viability at 5 uM after 72 hrs by MTT assay; format: functional, U-87MG ATCC
[10] = molecular target: T1, Neuronal acetylcholine receptor (Homo sapiens) (UniProt P17787+P30926+P32297+P43681+Q15822+Q9UGM1+Q15825+P30532+P36544+Q9GZZ6+Q05901); assay: Antagonist activity at nAChR in human HT-29 cells assessed as reduction in cytoplasmic free calcium level at 5 uM measured upto 6 hrs by Fura2-AM dye based fluorescence assay; format: cell-based; settings: time hrs <=6
HT-29 [11] = assay: Cell cycle arrest in human HT-29 cells assessed as accumulation of cells at G2/M phase at 5 uM after 72 hrs by propidium iodide staining based flow cytometric analysis (reference value: 22.3+/- 0.4%); format: functional
PC-3 [12] = assay: Cytotoxicity against human PC-3 cells assessed as reduction in cell viability at 5 uM after 48 to 72 hrs by MTT assay; format: functional, cell-based; settings: time 48-72 hrs
MDA-MB-231 [13] = assay: Cytotoxicity against human MDA-MB-231 cells assessed as reduction in cell viability at 5 uM after 24 hrs by MTT assay; format: functional, cell-based
PC-3 [14] = assay: Cell cycle arrest in human PC-3 cells assessed as decrease in accumulation of cells at G2/M phase at 5 uM after 72 hrs by propidium iodide staining based flow cytometric analysis; format: functional
[15] = molecular target: T1, Neuronal acetylcholine receptor (Homo sapiens); assay: Antagonist activity at nAChR in human MDA-MB-231 cells assessed as reduction cytoplasmic free calcium level at 5 uM measured upto 6 hrs by Fura2-AM dye based fluorescence assay; format: cell-based; settings: time hrs <=6
PC-3 [16] = assay: Cytotoxicity against human PC-3 cells assessed as reduction in cell viability at 5 uM after 72 hrs by MTT assay; format: functional
[17] = molecular target: T1, Neuronal acetylcholine receptor (Homo sapiens); assay: Antagonist activity at nAChR in human PC-3 cells assessed as reduction in cytoplasmic free calcium level at 5 uM measured upto 6 hrs by Fura2-AM dye based fluorescence assay; format: cell-based; settings: time hrs <=6
MDA-MB-231 [18] = assay: Cell cycle arrest in human MDA-MB-231 cells assessed as accumulation of cells at subG1 phase at 5 uM after 72 hrs by propidium iodide staining based flow cytometric analysis (reference value: 1.1+/- 0.1%); format: functional
HT-29 [19] = assay: Cytotoxicity against human HT-29 cells assessed as reduction in cell viability at 5 uM after 24 to 72 hrs by MTT assay; format: functional, cell-based; settings: time 24-72 hrs
HT-29 [20] = assay: Induction of mitochondrial membrane permeability in human HT-29 cells assessed as mitochondrial membrane permeability at 5 uM measured after 72 hrs by TMRE staining based analysis (reference value: 7%); format: functional
PC-3 [21] = assay: Cytotoxicity against human PC-3 cells assessed as reduction in cell viability at 5 uM after 24 hrs by MTT assay; format: functional, cell-based
U-87 MG [22] = assay: Cytotoxicity against human U87 cells assessed as reduction in cell viability at 5 uM after 24 to 72 hrs by MTT assay; format: functional, cell-based; settings: U-87MG ATCC, time 24-72 hrs
MDA-MB-231 [23] = assay: Induction of apoptosis in human MDA-MB-231 cells assessed as caspase activation using Ac-DEVD-AMC as substrate at 5 uM measured after 72 hrs by fluorometric assay relative to control; format: functional
MDA-MB-231 [24] = assay: Cell cycle arrest in human MDA-MB-231 cells assessed as decrease in accumulation of cells at G2/M phase at 5 uM after 72 hrs by propidium iodide staining based flow cytometric analysis; format: functional
PC-3 [25] = assay: Induction of mitochondrial membrane permeability in human PC-3 cells assessed as mitochondrial membrane permeability at 5 uM measured after 72 hrs by TMRE staining based analysis (reference value: 7%); format: functional
MDA-MB-231 [26] = assay: Cytotoxicity against human MDA-MB-231 cells assessed as reduction in cell viability at 5 uM after 48 to 72 hrs by MTT assay; format: functional, cell-based; settings: time 48-72 hrs
MDA-MB-231 [27] = assay: Induction of apoptosis in human MDA-MB-231 cells assessed as early apoptosis at 5 uM measured after 72 hrs by AnnexinV/propidium iodide staining based flow cytometry; format: functional
HT-29 [28] = assay: Cell cycle arrest in human HT-29 cells assessed as accumulation of cells at subG1 phase at 5 uM after 72 hrs by propidium iodide staining based flow cytometric analysis (reference value: 1.9+/- 0.1%); format: functional
PC-3 [29] = assay: Induction of apoptosis in human PC-3 cells assessed as early apoptosis at 5 uM measured after 72 hrs by AnnexinV/propidium iodide staining based flow cytometry; format: functional
[30] = Cytotoxicity against human U373 cells assessed as reduction in cell viability at 5 uM after 72 hrs by MTT assay; format: functional, U-373MG ATCC; settings: U373 MG
HT-29 [31] = assay: Induction of apoptosis in human HT-29 cells assessed as early apoptosis at 5 uM measured after 72 hrs by AnnexinV/propidium iodide staining based flow cytometry; format: functional
HT-29 [32] = assay: Induction of apoptosis in human HT-29 cells assessed as caspase activation using Ac-DEVD-AMC as substrate at 5 uM measured after 72 hrs by fluorometric assay relative to control; format: functional
HT-29 [33] = assay: Cell cycle arrest in human HT-29 cells assessed as accumulation of cells at S phase at 5 uM after 72 hrs by propidium iodide staining based flow cytometric analysis (reference value: 5.3+/- 0.4%); format: functional
Caco-2 = assay: Cytotoxicity against human Caco-2 cells assessed as cell viability at 0.46 uM measured after 72 hrs by MTT assay; format: functional, cell-based
HT-29 [34] = assay: Cytotoxicity against human HT-29 cells assessed as reduction in cell viability at 5 uM after 72 hrs by MTT assay; format: functional
HeLa = assay: Cytotoxicity against human HeLa cells assessed as loss of cell viability at 5.76 uM measured after 72 hrs by MTT assay; format: functional

## C=CC1=C[C@@H]2[C@@H]3O[C@]4(C[C@H]5CCC[C@@]6(CC[C@@]7(O[C@@H](CC[C@@]7(C)O)CC(=C)CCCC7=NC[C@H](C)[C@@H](C)C[C@@]72CC1)O6)O5)C[C@@H](C)[C@@H](O)[C@H]3O4
U-373MG ATCC
  Activity: Active
N2a
  Activity: inactive
LN-18 [1]
  Activity: Active
MDA-MB-231 [2]
  Activity: 14.8%
PC-3 [3]
  fold change (FC): 5.5
PC-3 [4]
  Activity: 9.7%
PC-3 [5]
  Activity: 65.4%
LN-18 [6]
  inhibition at 5 µM: 50%
MDA-MB-231 [7]
  inhibition at 5 µM: 30%
MDA-MB-231 [8]
  Activity: 62.4%
U-87 MG [9]
  inhibition at 5 µM: 30%
[10]
  inhibition: 16.2%
HT-29 [11]
  Activity: 32.5%
PC-3 [12]
  Activity: Active
MDA-MB-231 [13]
  Activity: inactive
PC-3 [14]
  Activity: Active
[15]
  inhibition: 23.6%
PC-3 [16]
  inhibition at 5 µM: 30%
[17]
  inhibition: 14.2%
MDA-MB-231 [18]
  Activity: 4.5%
HT-29 [19]
  Activity: Active
HT-29 [20]
  Activity: 17.9%
PC-3 [21]
  Activity: inactive
U-87 MG [22]
  Activity: Active
MDA-MB-231 [23]
  fold change (FC): 5.5
MDA-MB-231 [24]
  Activity: Active
PC-3 [25]
  Activity: 13.8%
MDA-MB-231 [26]
  Activity: Active
MDA-MB-231 [27]
  Activity: 13.7%
HT-29 [28]
  Activity: 5.5%
PC-3 [29]
  Activity: 13.9%
[30]
  inhibition at 5 µM: 50%
HT-29 [31]
  Activity: 10.7%
HT-29 [32]
  fold change (FC): 10.5
HT-29 [33]
  Activity: 8%
Caco-2
  Activity: inactive
HT-29 [34]
  inhibition at 5 µM: 50%
HeLa
  Activity: 27%
